Data: PMC5007552, “The hVps34‐SGK3 pathway alleviates sustained PI3K/Akt inhibition by stimulating mTORC1 and tumour growth” (The EMBO Journal, 2016)

How the values were obtained:
[1] = tested on: BT-474c cells; test: Cell growth in vitro (confluency, Incucyte ZOOM); type: cell-based, human
Description: (§1) Figure 8 Dual treatment with Akt and SGK inhibitors reduces tumour growth in BT‐474 xenograft model • BT‐474 cells were treated for the indicated times with 0.3 μM MK‐2206. The cell lysates were analysed by immunoblot using the indicated antibodies. • BT‐474c cells were treated with inhibitors as indicated either as monotherapy or in combination and cell confluency measured on the Incucyte ZOOM every 4 h for up to 4 weeks. • BT‐474 cells were injected subcutaneously into athymic Foxn1 ^nu nude mice. […] The tumour volume was measured twice a week. Tumour growth is represented as the fold change mean ± SEM. • All mice were weighed at the end of the treatments. […] Results are presented as a mean ± SD from three different samples. • Tumours were harvested at the end of the experiment, 4 h after the last dosage and subjected to immunohistochemical analysis using cleaved caspase‐3 antibody (clCasp3). Apoptotic cells were counted in 25 fields per condition (left panel) and quantified as clCasp3‐positive cells/field (right panel). The results are presented as mean ± SD number of cleaved caspase‐3 positive cells. Representative images are shown. Scale bar, 100 μm. • Tumours were harvested at the end of the experiment, 4 h after the last dosage and subjected to immunohistochemical analysis with the indicated antibodies. Representative images are shown. Scale bar, 100 μm. • Tumours were obtained the same way as in (G) and subjected to immunoblot analysis with the indicated antibodies. Six different tumours were analysed from each treatment group and each line represents one tumour sample. TEXT PRINTED IN THE PICTURE: (E) MK-2206: plasma conc.
SGK3 (upper panel) and S6K1 (middle panel) were immunoprecipitated and subjected to in vitro kinase assay by measuring phosphorylation of the Crosstide substrate peptide in the presence of 0.1 mM [γ‐^32P]ATP in a 30 min 30°C reaction. Kinase reactions are presented as means ± SD for triplicate reaction. Immunoprecipitates (IP) were also analysed by immunoblot with the indicated antibodies. […]

[2] = Plasma concentration at end of xenograft study; type: in vivo, mice; settings: 2–3 h after last dose on day 24, MK-2206 100 mg/kg, 14h 25 mg/kg p.o.
Description: as §1

[3] = tested on: BT-474 human breast xenograft; test: BT-474 xenograft tumour growth in nude mice; type: in vivo; settings: 24 days, monotherapy
Description: (§2) Figure 8 Dual treatment with Akt and SGK inhibitors reduces tumour growth in BT‐474 xenograft model • BT‐474 cells were treated for the indicated times with 0.3 μM MK‐2206. The cell lysates were analysed by immunoblot using the indicated antibodies. • BT‐474c cells were treated with inhibitors as indicated either as monotherapy or in combination and cell confluency measured on the Incucyte ZOOM every 4 h for up to 4 weeks. • BT‐474 cells were injected subcutaneously into athymic Foxn1 ^nu nude mice. […] The tumour volume was measured twice a week. Tumour growth is represented as the fold change mean ± SEM. • All mice were weighed at the end of the treatments. […] Apoptotic cells were counted in 25 fields per condition (left panel) and quantified as clCasp3‐positive cells/field (right panel). […] Six different tumours were analysed from each treatment group and each line represents one tumour sample. […]
(§3) Experiments involving mice were in accordance with Institutional Guidelines of Memorial Sloan Kettering Cancer Center (Protocol number 12‐10‐019). […] When tumours reached a volume of ~150 mm^3, mice were randomised, treated, and tumours were measured twice a week. Tumour volume was determined using the following formula: (length × width^2) ÷ 2. […]

[4] = tested on: BT-474 xenograft tumours; test: Immunohistochemical and immunoblot analysis of signalling markers in xenograft tumours; type: in vivo, mice; settings: end of treatment, IHC and immunoblot
Description: as §2, §3

[5] = tested on: ZR-75-1 cells; test: Immunoblot of Akt/mTORC1 pathway markers (Akt, PRAS40, TSC2, S6K1, Rictor, S6, 4EBP1) in ZR-75-1 cells; type: cell-based, human
Description: Kinase reactions are presented as means ± SD for triplicate reaction. Immunoprecipitates (IP) were also analysed by immunoblot with the indicated antibodies. • SGK3 was knocked down in ZR‐75‐1 cells by using shRNA probe B and compared to a control shRNA probe, named sh scramble. After infection, the cells were kept for 2 days in puromycin selection media and then seeded for the experiment. The cells were treated with 1 μM MK‐2206 for 1 h or 5 days. The cell lysates were subjected to immunoblot analysis with the indicated antibodies.
The cell lysates were analysed by immunoblot using the antibody against phosphorylated Akt phosphorylation consensus motif (RxRxxpS/pT).
(§4) HEK293 cells were purchased from the American Tissue Culture Collection (ATCC). Cells were cultured in RPMI or DMEM media supplemented with 10% (v/v) foetal bovine serum, 2 mM L‐glutamine, 100 U/ml penicillin and 0.1 mg/ml streptomycin. Inhibitor treatments were carried out as described in figure legends. During 5 days inhibitor treatments, the media was changed after 72‐h intervals. The cells were lysed in buffer containing 50 mM Tris–HCl (pH 7.5), 150 mM NaCl, 1 mM EDTA, 1 mM EGTA, 1 mM sodium orthovanadate, 10 mM sodium glycerophosphate, 10 mM sodium pyrophosphate, 0.27 M sucrose, 0.1% (v/v) 2‐mercaptoethanol, 1 mM benzamidine and 0.1 mM PMSF. Lysates were clarified by centrifugation at 16,000 g for 10 min at 4°C. Protein concentration was calculated using Bradford assay (Thermo Scientific). Immunoblotting and immunoprecipitation were performed using standard procedures. The signal was developed using ECL Western Blotting Detection Kit (Amersham) on Amersham Hyperfilm ECL film (Amersham).

[6] = biological target: MLK1 (Homo sapiens, UniProt P80192); test: IC50 on recombinant MLK1; type: biochemical; settings: Fig 5B / Appendix Fig S1B, recombinant kinase, unit inferred
MLK1, sequence (P80192 whole entry, species assumed): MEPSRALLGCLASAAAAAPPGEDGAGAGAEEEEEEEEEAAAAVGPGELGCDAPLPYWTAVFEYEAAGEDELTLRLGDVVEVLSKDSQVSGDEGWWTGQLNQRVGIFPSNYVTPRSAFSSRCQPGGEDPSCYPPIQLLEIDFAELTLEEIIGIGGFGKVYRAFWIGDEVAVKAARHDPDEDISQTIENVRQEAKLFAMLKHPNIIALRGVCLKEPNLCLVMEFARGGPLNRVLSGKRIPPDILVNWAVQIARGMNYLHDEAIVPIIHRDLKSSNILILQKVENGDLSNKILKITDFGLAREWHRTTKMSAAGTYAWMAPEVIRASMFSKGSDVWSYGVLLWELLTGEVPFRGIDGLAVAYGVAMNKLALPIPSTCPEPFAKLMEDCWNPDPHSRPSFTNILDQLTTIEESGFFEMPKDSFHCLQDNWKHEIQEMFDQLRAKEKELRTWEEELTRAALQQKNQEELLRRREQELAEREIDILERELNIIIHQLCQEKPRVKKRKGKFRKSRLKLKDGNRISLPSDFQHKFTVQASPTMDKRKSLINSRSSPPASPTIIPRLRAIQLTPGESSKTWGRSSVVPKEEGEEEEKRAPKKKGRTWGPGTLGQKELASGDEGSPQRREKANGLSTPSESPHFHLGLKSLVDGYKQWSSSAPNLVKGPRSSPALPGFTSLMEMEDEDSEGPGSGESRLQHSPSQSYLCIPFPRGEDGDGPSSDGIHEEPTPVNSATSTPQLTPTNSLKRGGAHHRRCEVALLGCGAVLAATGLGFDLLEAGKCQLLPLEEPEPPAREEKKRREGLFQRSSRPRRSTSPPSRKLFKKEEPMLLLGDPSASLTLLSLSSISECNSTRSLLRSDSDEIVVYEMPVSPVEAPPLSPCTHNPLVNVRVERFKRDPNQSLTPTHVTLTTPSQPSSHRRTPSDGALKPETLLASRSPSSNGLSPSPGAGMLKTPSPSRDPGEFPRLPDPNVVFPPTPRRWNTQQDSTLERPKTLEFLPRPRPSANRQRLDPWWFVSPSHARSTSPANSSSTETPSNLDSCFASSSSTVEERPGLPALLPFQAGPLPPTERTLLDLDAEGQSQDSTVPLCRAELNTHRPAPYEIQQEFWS
Description: The result for each kinase is presented as a mean kinase activity of the reaction taken in triplicate relative to a control reaction where the inhibitors were omitted. […] SGK3 was immunoprecipitated from cell lysates and subjected to in vitro kinase assay by measuring phosphorylation of the Crosstide substrate peptide in the presence of 0.1 mM [γ‐^32P]ATP in a 30 min 30°C reaction (upper panel). Kinase reactions are presented as means ± SD for triplicate reaction.
Appendix Figure S1. […] (A) Chemical struc tures of
Sano/f_i-14g, -14i and -14n compounds. (B) IC50 values of inhibitors on indicated recombinant k inases. […]

[7] = tested on: BT-474c cells; test: Immunoblot of mTORC1 pathway markers in BT-474c cells; type: cell-based, human; settings: 5 days 1 μM MK-2206, then 3 μM 14h 1 h
Description: SGK3 (upper panel) and S6K1 (middle panel) were immunoprecipitated and subjected to in vitro kinase assay by measuring phosphorylation of the Crosstide substrate peptide in the presence of 0.1 mM [γ‐^32P]ATP in a 30 min 30°C reaction. Kinase reactions are presented as means ± SD for triplicate reaction. Immunoprecipitates (IP) were also analysed by immunoblot with the indicated antibodies. The cell lysates were subjected to immunoblot analysis using the indicated antibodies (bottom panel). Source data are available online for this figure.
as §4, with “Immunoblotting and immunoprecipitation were performed using standard procedures. The signal was developed using ECL Western Blotting Detection Kit (Amersham) on Amersham Hyperfilm ECL film (Amersham).” left out

[8] = 1–3 μM 14h, 1 h, ZR-75-1 in serum
[9] = ZR-75-1, 5 days GDC0941 or MK-2206, then 3 μM 14h 1 h

| Structure (SMILES) | time to reach confluency ([1]; 0.3 μM Akt inhibitor, long-term growth assay) [days] | plasma conc. ([2]; dual treatment) [nM] | plasma conc. ([2]; mono treatment) [nM] | inhibition of in vivo growth of BT-474 ([3]; 100 mg/kg p.o. 5 times/week) | phosphorylation markers in tumour samples (Akt 473, PRAS40, NDRG1, S6) [4] | cell growth when 14h is combined with Akt inhibitor ([1]; 3 μM 14h with 0.3 μM AZD5363 or MK-2206, from beginning or 12 days after) | anti-proliferative effect alone ([1]; 3 μM, 5–6 days) | S6K1 and S6 protein phosphorylation ([5]; 10 μM 14h, 1 h, ZR-75-1 in serum) | PRAS40 (Akt-specific substrate) phosphorylation [5, 8] | Rictor (Thr1135) and S6 protein (Ser240/244) phosphorylation [5, 8] | 4EBP1 phosphorylation [5, 9] | TSC2 phosphorylation [5, 9] | TSC2, S6K1, Rictor, S6 protein or 4EBP1 phosphorylation or S6K1 activity ([5]; ZR-75-1 in serum without prolonged PI3K or Akt inhibitor treatment, 3 μM 14h) | IC50 [6] [nM] | anti-tumour effect ([3]; 25 mg/kg p.o. 5 times/week) | phosphorylation of TSC2, S6K1 and S6 protein [7] |
| --- | --- | --- | --- | --- | --- | --- | --- | --- | --- | --- | --- | --- | --- | --- | --- | --- |
| NC1(c2ccc(-c3nc4ccn5c(=O)[nH]nc5c4cc3-c3ccccc3)cc2)CCC1 [MK-2206] | ~20 | 2690 ± 250 | 2690 ± 530 | ~ 20% | ablated Akt 473 and PRAS40 phosphorylation | – | – | – | – | – | – | – | – | – | – | – |
| Nc1n[nH]c2nc(-c3ccc(NS(=O)(=O)c4cc(Cl)ccc4Cl)cc3)cnc12 [14h] | – | 1390 ± 360 | 1770 ± 540 | – | no major effect | further reduction in cell growth | little anti‐proliferative effect | moderate reduction | not dephosphorylated | failed to significantly inhibit | not markedly reduced | suppressed phosphorylation of TSC2 | did not inhibit | 215 | No anti‐tumour effects | suppression of phosphorylation of TSC2, S6K1 and its downstream target S6 protein |
